Source: patent publication US7741445B2, “Breast cancer resistance protein (BCRP) antibodies” (University of Maryland, Baltimore, priority 1998, dated 2010)
“Also recorded” adds a separate entry of the source.

What was measured:
MCF-7/MTX = details: breast; cited from earlier work
EPG85-257RDB = details: gastric; cited from earlier work
EPP85-181RDB = details: pancreatic; cited from earlier work
MCF-7/AdrVp = details: subline selected with doxorubicin in the presence of verapamil; cited from earlier work
[1] = tested on: BCRP-overexpressing clones 6 and 8 (MCF-7 cells transfected with pcDNA3-BCRP); test: Daunorubicin accumulation and retention by flow cytometry; assay type: cell-based, human
Experimental: (§1) The full-length BCRP cDNA was inserted into the multiple to cloning site of expression vector pcDNA3 (Invitrogen). Following subcloning of the pcDNA3-BCRP construct, DNA sequence analysis was performed to confirm that the insert in the clone that was chosen was in a sense orientation to the CMV promoter of the pcDNA3 vector. MCF-7 cells were transfected with pcDNA3-BCRP, using the calcium phosphate precipitation method (17), selected by culture with geneticin (G418, 1 mg/ml), then subclone by limiting dilution in 96 well flat-bottomed culture plates. Subclones were tested for expression of BCRP mRNA by Northern blot analysis, using radiolabeled Clone 8 cDNA as a probe (FIG. 4A). As a control, MCF-7 cells were also transfected with the empty pcDNA3 vector, then selected by growth in medium containing 1 mg/ml G418 (FIG. 4A).
Daunorubicin accumulation and retention was examined in the transfected cells by means of flow cytometry.

MCF-7/AdrVp cells = details: MCF-7/AdrVp vs MCF-7; cited from earlier work
[2] = tested on: MCF-7/BCRP transfectant clones 6 and 8; test: Sulforhodamine-B (SRB) cytotoxicity assay; assay type: cell-based, human; details: compared to clone 19, MCF-7 cells or empty vector-transfected controls
Experimental: as §1
The sensitivities of the various transfected sublines to chemotherapeutic agents were tested by the sulforhodamine-B (SRB) cytotoxicity assay (14). The LC50, defined as the concentration of drug that caused lethality to 50% of the cells, was calculated. From this, the “Fold of Resistance” (RF) was calculated by dividing the LC50 for a given drug against a transfected cell line by the LC50 of that drug against non-transfected MCF-7 cells. […] FIG. 5 contains the median LC50 values for multiple cytotoxicity experiments for all cell lines and drugs tested. […] The asterisk and solid line in FIG. 4D indicate MCF-7/W cells, the closed squares and dotted lines represent MCF-7/pcDNA3-BCRP clone 8 cells. The vertical bars in the figure represent the standard deviation of six replicate determinations.

EPP85-181RNOV = details: pancreatic; cited from earlier work
HT29RNOV = details: colon; cited from earlier work
8226/MR20 = details: 8226/MR20, myeloma; cited from earlier work
HL-60/MX2 = details: HL-60/MX2, leukemia; cited from earlier work
MCF-7/MXPR = details: breast; cited from earlier work
MDA-MB-231RNOV = details: breast; cited from earlier work
MCF-7/MXRS250 = details: MCF-7/MXRS250, breast; cited from earlier work
MCF-7/Mitox = details: breast; cited from earlier work
EPG85-257RNOV = details: gastric; cited from earlier work
H209/MX4 = details: H209/MX4, small cell lung; cited from earlier work
S1M1-3.2 = details: S1M1-3.2, colon; cited from earlier work
MCF-7/MXRS600 = details: MCF-7/MXRS600, breast; cited from earlier work
H209/MX2 = details: H209/MX2, small cell lung; cited from earlier work
EPF86-079RNOV = details: fibrosarcoma; cited from earlier work
H69/AR = details: small cell lung; cited from earlier work
MCF-7/Adr = details: breast; cited from earlier work
MCF-7/VP = details: breast; cited from earlier work
H209/V6 = details: H209/V6, small cell lung; cited from earlier work
[3] = tested on: cells that overexpress Pgp or MRP; details: cited from earlier work
[4] = tested on: BCRP-transfected MCF-7 cells; test: FTC effects on BBR3390 accumulation and retention, flow cytometry; assay type: cell-based, human; details: 10 uM FTC
Experimental: MCF-7 cells transfected with either the pcDNA3 empty vector or pcDNA3 containing the full-length BCRP cDNA (transfectant clone 8) were cultured as monolayers in tissue culture flasks. The effects of FTC on the accumulation of the aza-anthrapyrazole BBR3390 were measured by exposing these cells to the fluorescent aza-anthrapyrazole BBR3390 (5 uM) in the presence or absence of 10 uM FTC for 60 minutes. Then, the cells were removed from the flasks by trypsinization, and intracellular BBR3390 content was measured by flow cytometry. The effects of FTC on BBR3390 retention were measured by exposing another set of cells (vector control and transfectant clone 8) to 5 uM BBR3390 with and without 10 uM FTC for 60 minutes, washing the cells free of drug, then reincubating the cells for an additional 30 minutes in fresh medium with and without FTC. Intracellular BBR3390 content was measured by flow cytometry. (See FIG. 10).

Molecule: CN(Cc1cnc2nc(N)nc(N)c2n1)c1ccc(C(=O)N[C@@H](CCC(=O)O)C(=O)O)cc1 [methotrexate]
- Fold resistance to selecting agent (MCF-7/MTX): 1,000 fold

Molecule: COc1cccc2c1C(=O)c1c(O)c3c(c(O)c1C2=O)C[C@@](O)(C(C)=O)C[C@@H]3O[C@H]1C[C@H](N)[C@H](O)[C@H](C)O1 [daunorubicin]
- Fold resistance to selecting agent (EPG85-257RDB): 1,857 fold
- Fold resistance to selecting agent (EPP85-181RDB): 846 fold
- cross-resistance of MCF-7/AdrVp subline (MCF-7/AdrVp): marked cross-resistance
- intracellular steady-state concentration of drug, of that attained in the vector control cells ([1]; MCF-7/BCRP clone 6 vs pcDNA3 vector control cells): ~50%
- intracellular steady-state concentration of drug, of that attained in the vector control cells ([1]; MCF-7/BCRP clone 8 vs pcDNA3 vector control cells): approximately 30%
- intracellular accumulation compared to MCF-7 cells (MCF-7/AdrVp cells): marked reduction
- resistance / sensitivity of BCRP-overexpressing clones 6 and 8 to chemotherapeutic agent [2]: displayed resistance

Molecule: CC(=O)O[C@H]1C(=O)[C@@]2(C)[C@H]([C@H](OC(=O)c3ccccc3)[C@]3(O)C[C@H](OC(=O)[C@H](O)[C@@H](NC(=O)c4ccccc4)c4ccccc4)C(C)=C1C3(C)C)[C@]1(OC(C)=O)CO[C@@H]1C[C@@H]2O [paclitaxel]
- cross-resistance of MCF-7/AdrVp subline (MCF-7/AdrVp): remains sensitive
- resistance / sensitivity of BCRP-overexpressing clones 6 and 8 to chemotherapeutic agent [2]: remained relatively sensitive

Molecule: O=C1c2c(O)ccc(O)c2C(=O)c2c(NCCNCCO)ccc(NCCNCCO)c21 [mitoxantrone]
- Fold resistance to selecting agent (EPP85-181RNOV): 27 fold
- Fold resistance to selecting agent (HT29RNOV): 100 fold
- Fold resistance to selecting agent (8226/MR20): 36 fold
- Fold resistance to selecting agent (HL-60/MX2): 35 fold
- Fold resistance to selecting agent (MCF-7/MXPR): 270 fold
- Fold resistance to selecting agent (MDA-MB-231RNOV): 93 fold
- Fold resistance to selecting agent (MCF-7/MXRS250): 4,600 fold
- Fold resistance to selecting agent (MCF-7/Mitox): 1,206 fold
- Fold resistance to selecting agent (EPG85-257RNOV): 457 fold
- cross-resistance of MCF-7/AdrVp subline (MCF-7/AdrVp): marked cross-resistance
- Fold resistance to selecting agent (H209/MX4): 4 fold
- Fold resistance to selecting agent (S1M1-3.2): 1,435 fold
- Fold resistance to selecting agent (MCF-7/MXRS600): 7,450 fold
- Fold resistance to selecting agent (H209/MX2): 2 fold
- Fold resistance to selecting agent (EPF86-079RNOV): 7 fold
- resistance / sensitivity of BCRP-overexpressing clones 6 and 8 to chemotherapeutic agent [2]: displayed resistance; also recorded: greatest degree of resistance

Molecule: COc1cccc2c1C(=O)c1c(O)c3c(c(O)c1C2=O)CC(O)(C(=O)CO)CC3OC1CC(N2CCOCC2C#N)C(O)C(C)O1 (stereo not shown) [3′-deamino-3′[3-cyano-4-morpholinyl]doxorubicin]
- cross-resistance of MCF-7/AdrVp subline (MCF-7/AdrVp): marked cross-resistance

Molecule: COc1cccc2c1C(=O)c1c(O)c3c(c(O)c1C2=O)C[C@@](O)(C(=O)CO)C[C@@H]3O[C@H]1C[C@H](N)[C@H](O)[C@H](C)O1 [doxorubicin]
- Fold resistance to selecting agent (H69/AR): 100 fold
- resistance / sensitivity of BCRP-overexpressing clones 6 and 8 to chemotherapeutic agent [2]: displayed resistance
- Fold resistance to selecting agent (MCF-7/Adr): 192 fold

Molecule: rhodamine 123
- intracellular accumulation compared to MCF-7 cells (MCF-7/AdrVp cells): marked reduction

Molecule: CC(=O)[C@]1(O)Cc2c(O)c3c(c(O)c2[C@@H](O[C@H]2C[C@H](N)[C@H](O)[C@H](C)O2)C1)C(=O)c1ccccc1C3=O [idarubicin]
- cross-resistance of MCF-7/AdrVp subline (MCF-7/AdrVp): not
- resistance / sensitivity of BCRP-overexpressing clones 6 and 8 to chemotherapeutic agent [2]: remained relatively sensitive

Molecule: COc1cc([C@@H]2c3cc4c(cc3[C@@H](O[C@@H]3O[C@@H]5CO[C@@H](C)O[C@H]5[C@H](O)[C@H]3O)[C@H]3COC(=O)[C@H]23)OCO4)cc(OC)c1O [etoposide]
- Fold resistance to selecting agent (MCF-7/VP): 26 fold
- Fold resistance to selecting agent (H209/V6): 22 fold

Molecule: COc1ccc2c3c([nH]c2c1)[C@H](C=C(C)C)N1C(=O)[C@@H]2CCCN2C(=O)[C@@H]1C3 [FTC, Fumitremorgin C]
- reversal of resistance [3]: does not reverse resistance
- effect on accumulation of BBR 3390 ([4]; 5 uM BBR3390, 60 minutes): able to enhance the accumulation
- effect on efflux of BBR 3390 ([4]; 5 uM BBR3390, 60 minutes then 30 minutes in fresh medium): inhibit the efflux

Molecule: N.N.[Cl][Pt][Cl] [cisplatin]
- cross-resistance of MCF-7/AdrVp subline (MCF-7/AdrVp): remains sensitive
- resistance / sensitivity of BCRP-overexpressing clones 6 and 8 to chemotherapeutic agent [2]: remained relatively sensitive
